“Also recorded” adds a separate entry of the source.
What was measured:
Type in all cases: in vivo, mouse
MeCP2−/y mice [1] = assay: Heart rate measurements (real time cardiac pulse rate, tail clip sensor); details: 8 week old MeCP2−/y mice, treated from P15 (6 weeks), non-anesthetized
tPA = tPA expression (mRNA, tPA staining) during monocular deprivation; details: mice subjected to MD and treated
Method: (§1) A: Effects of (1-3)IGF-1 (GPE) treatment on the expression levels of BDNF at mRNA level. […] (1-3)IGF-1 treatment is able to increase expression though not to control levels. The RNA levels were obtained with the micro-array analysis described in Tropea et al., 2006. B: Double staining for NeuN (green) and proBDNF (red) antibody. […] Anti-pro BDNF and anti-NeuN were obtained from CHEMICON and used at a concentration of 1:500. The solutions and time of incubations are the following: preincubation in 5% BSA, 0.1% triton, 10% serum, PBS. Incubation with the primary antibodies was carried out at 4 degrees for 3 days in the following solution: 2% BSA, 5% serum, 0.1% triton, PBS. After washings in PBS secondary biotinylated (for pro-BDNF) or Alexa conjugated (for NeuN) antibodies (1:200) were incubated for 2 hours in the same solution of the primary antibodies. The pro-BDNF labeling was detected by adding extravidine tritc (Sigma—1:300). C: Effects of (1-3)IGF-1 (GPE) treatment on the mRNA expression levels of tPA. […] Anti-tPA was purchased from Oxford Biomedical Research and used at a concentration of 1:500. The conditions for incubation were the following: free floating sections were pre-incubated in blocking solution: 10% serum, 0.3% triton, PBS and then left overnight in the primary antibody mix: 1% serum, 0.3% triton, PBS, anti-tPA 1:500, anti Neu-N 1:500. […]

[2] = system: neurons in the CA3 region of the hippocampus; assay: Neuron soma size in hippocampus
Method: We also measured the effect of (1-3)IGF1 treatment on neuron soma size in hippocampus. Mice were treated with (1-3)IGF1 as described above for locomotor activity.

MeCP2−/y mice [3] = assay: Survival and disease progression (Kaplan-Meier)
Text: A. (1-3) IGF-1 reduces the frequency of bradycardia in MeCP2 null mice. Pooled heart rate distributions observed across mice from different treatments, in beats per minute (bpm). The Y axis depicts the percent of observations within an experimental group that exceed a given bpm value (X axis). Comparisons are between 8 week old animals (WT or KO), some of which received (1-3)IGF-1 treatment for 6 weeks (KO-T). The KO distribution (pink) was left-shifted compared to the wild-type distribution (black), indicating a significant reduction in the distribution of heart rates. […] B. (1-3)IGF-1 treatment improves locomotor function in MeCP2 null mice. Baseline nocturnal activity was measured by placing animals in cages equipped with a movement detector (infrared beam). […] “N”=number of animals per group. C. (1-3)IGF-1 treated MeCP2 KO mice have longer life expectancy than vehicle treated controls. Kaplan-Meier survival curves for MeCP2-/y mice treated with vehicle (KO, red line) or (1-3)IGF-1 (KO-T, green line). […] MeCP2-/y mice were given daily IP injections of (1-3)IGF-1 (0.01 mg/g body weight/day) every day from 2 weeks of age onward. “n” is the number of mice per experimental group. (1-3)IGF-1 treatment: For the survival measurements, the nocturnal activity analysis and the immunoblot analysis, (1-3) IGF-1 (Bachem Biosciences # H22468) was administered daily via intra-peritoneal injections (0.01 mg/g body weight, vehicle=saline, 0.01% BSA). The treatment was started at P15 and maintained throughout the course of the experiments. For intracellular physiology experiments, the mice were injected daily (0.01 mg/g body weight, vehicle=saline, 0.01% BSA) for 2 weeks, from P15 to P28-P32 when they were used for acute slice preparation. For optical imaging experiments, mice were injected with (1-3) IGF-1 (0.02 mg/g body weight, vehicle=saline, 0.01% BSA) daily from the day of the lid suture to the day of imaging. Slice physiology preparation: Coronal sections (300 μm thick) at or near sensorimotor cortex were cut in <4° C. ACSF using a Vibratome. Slices were incubated at 37° C. for 20 minutes after slicing, and at room temperature for the remainder of the experiment. Slices were transferred to a Warner chamber and recordings were taken from visually identified pyramidal neurons located in layer 5. […] Cells were visualized with an Achroplan 40× water-immersion lens with infrared-DIC optics (Zeiss) and detected with an infrared camera (Hamamatsu) projecting to a video monitor. […] Then in current clamp 10 pulses (500 ms, 40-140 pA at 10 pA increments), were applied to quantify evoked firing rates and cellular excitability. […]

BDNF = BDNF expression (mRNA micro-array, proBDNF staining) in V1 during monocular deprivation; details: mice subjected to MD and treated; vs MD and control
Method: as §1

NCC(=O)N1CCC[C@H]1C(=O)N[C@@H](CCC(=O)O)C(=O)O [(1-3)IGF-1, glycyl-L-prolyl-L-glutamic acid]
heart rate distribution / occurrence of irregular, lower heart rate (bradycardia, FIG. 4A) (MeCP2−/y mice [1]): significantly reduced; also recorded: partial rescue of the KO phenotype | tPA protein expression level, tPA staining (FIG. 8D) (tPA): strongly increased | tPA mRNA expression (FIG. 8C) (tPA; vs control and deprived animals): significantly up-regulated tPA mRNA expression relative to both control and deprived animals | average soma size (cell perimeter, FIG. 7) ([2]; MeCP2 KO animals, treated as for locomotor activity): increased average soma size in KO animals | size of cell bodies ([2]; as a result of the knockout or treatment (Discussion)): no change was observed | soma size (cell perimeter, FIG. 7) ([2]; wild type animals treated): had no effect on soma size in wild type animals | life expectancy, Kaplan-Meier survival curves (FIG. 4C) (MeCP2−/y mice [3]; KO-T vs vehicle treated littermates, P=0.54*10^−7, log rank test): significantly longer life expectancy | increase in life expectancy (MeCP2−/y mice [3]; MeCP2−/y mice treated vs MeCP2 KO littermates, 0.01 mg/g body weight/day IP from 2 weeks of age): ~50% | 0.5 probability survival (MeCP2−/y mice [3]; MeCP2−/y mice treated, untreated KO ~60 days): 90 days | age at which symptoms develop (MeCP2−/y mice [3]; treated MeCP2 knockout mice vs controls): at the same age as controls | BDNF mRNA expression level in contralateral V1 (FIG. 8A) (BDNF): increase expression in animals subjected to MD, though not to control levels | BDNF protein expression, proBDNF staining (FIG. 8B) (BDNF): increasing BDNF protein expression, though not to control levels

Reference: patent US7994127B2, “Treatment of rett syndrome” (Massachusetts Institute of Technology, priority 2007, dated 2011)
